Where two headings read alike, the source gives them in different places.

One data set has as its system InsR. Kind of data set: Cell surface InsR expression in HepG2 cells (flow cytometry). The data set is classed as cell-based, human. The conditions noted are these: HepG2, 2.5-15 μg/ml, eight hours. As to the method:
The effect of berberine was also time-dependent. HepG2 cells were treated with 7.5 μg/ml for 0, 2, 4, 6, 8 or 24 hours and total RNA was isolated as described above for slot blot and RT-PCR assays of InsR mRNA and ACTB mRNA expression. The level of InsR mRNA increased 4 h after exposure of cells to berberine and reached the peak level of 2.5-fold of the control at 8 h; the expression of InsR mRNA remained high for at least 24 h (FIG. 16). HepG2 cells cultured with 0, 2.5, 5, 10 or 15 μg/ml of berberine or normal mouse IgG (FIG. 17) for eight hours then detached, washed and resuspended in FACS solution (PBS with 0.5% BSA and 0.02% sodium azide) at a density of 1×10^6 cells/ml. Cells were then incubated with a monoclonal antibody to InsR (NeoMarkers, Fremont, Calif.) at a final dilution of 1:100 (room temperature, 0.5 h). An isotype-matched, nonspecific mouse IgG was used as a control for nonspecific staining. Then, cells were washed and stained with FITC conjugated goat-anti-mouse IgG (Santa Cruz Biotech, 1:200 dilution). The fluorescent intensity was examined by flow cytometry (FAC Sort, Becton Dickinson, Calif.).

In the next data set the test system is PKC. The data set is described as follows: Cellular PKC activity in HepG2 cells (PepTag assay). The data set is classed as cell-based, human. As to the method: To determine whether berberine directly activates PKC, pGL3-1.5kIRP transfected HepG2 cells were either not treated, treated with 0.2 μM of calphostin C, 5 μg/ml of berberine or 0.5 μM of PKC activator phorbol-12-myristate-13-acetate (PMA) (Gandino, Oncogene, 5(%), 721-725 (1990) or combinations thereof for eight hours. The activity of total PKC in the control and berberine treated cells was assessed by PKC activity assay.
Cellular PKC activity was analyzed using the PepTag® Assay for Non-Radioactive Detection of Protein Kinase-C or cAMP-Dependent Protein Kinase kit (Promega) according to the protocol. Briefly, after homogenization and partial purification, 10 μl of sample protein was mixed with 5 μl of PepTag® Cl peptide (specific substrate of PKC), 5 μl of reaction buffer and 5 μl of PKC activator solution in a 25 μl reaction system. The reactions were performed at 30° C. for 30 minutes. Then, the samples were loaded onto a 0.8% agarose gel. […] They were transferred to a 96-well plate and quantified using densitometry according to the supplier's protocol. The catalytic activity of total PKC of a specific sample was expressed as pmol/min/mg, representing the number of picomoles of phosphate transferred to the substrate per minute per milligram of proteins of the sample.

The subject of a further data set is rat model subjects. Kind of data set: Combinatorial anti-hyperlipidemia efficacy of berberine and lovastatin in rats (Table 9). The data set is classed as in vivo.
Another data set concerns LDLR mRNA. Kind of data set: Screen of 700 compounds from Chinese herbs for LDLR mRNA in HepG2 cells (semi-quantitative RT-PCR). As to conditions: HepG2, 24 hours. The data set is classed as cell-based, human. As to the method:
In exemplary experiments, cells from a human hepatoma-derived cell line, HepG2, were treated for 24 hours with 700 compounds isolated from Chinese herbs. RNA was then isolated from the cells and analysis of LDLR mRNA was determined using semi-quantitative RT-PCR assays. […] Treating HepG2 cells cultured in medium containing 0.5% lipoprotein-depleted fetal bovine serum or serum supplemented with sterols and berberine caused time dependent increases in the expression of LDLR mRNA.

A further data set relates to LDLR. Kind of data set: Cell surface LDLR protein on Bel-7402 cells (FACS). The data set is classed as cell-based, human. The conditions noted are these: Bel-7402 cells treated with 5 μg/ml. As to the method: Bel-7402 cells treated with 5 μg/ml of berberine were detached with cell removal buffer containing EDTA, washed and resuspended in FACS solution (PBS with 0.5% BSA and 0.02% sodium azide) at a density of 1×10^6 cells/ml. Cells were then incubated with monoclonal antibody to LDLR (Santa Cruz Biotechnology, Inc., Santa Cruz, Calif.) at a final dilution of 1:50 and left at room temperature for 1 hour. The cells were then reacted with isotope matched, nonspecific mouse IgG as a control for nonspecific staining. The cells were then washed and stained with FITC conjugated goat antibody to mouse IgG (Santa Cruz Biotechnology, Inc., Santa Cruz, Calif., 1:100 dilution) and the fluorescence intensity was analyzed by FACS (FACSort, Becton Dickinson, Franklin Lakes, N.J.).

Another data set concerns hyperlipidemia patients. As to conditions: for Cholesterol / HDL Protein / LDL Protein / Triglycerides: hyperlipidemia patients, n = 32.
The mark [1] stands for this setting: high fat diet rats treated for 15 days, berberine 80 mg/kg/day, lovastatin 10 mg/kg/day.
Setting [2] is: high fat diet rats, Day 0 (untreated rats, baseline).
Where [3] appears, read: After berberine treatment (3 months).
Setting [4] is: Before berberine treatment (baseline).

Procedure for hyperlipidemia patients: After three months, fasting serum concentrations of cholesterol, triglycerides, HDL and LDL were measured using standard blood lipid tests.

For the compound `COc1ccc2cc3[n+](cc2c1OC)CCc1cc2c(cc1-3)OCO2` [berberine], in the data set on InsR, the “cell surface InsR expression” value is “increased cell surface expression”. The “time at which elevation of PKC activity was first observed” value in the data set on PKC (after berberine treatment) is 0.5 h. Also, the “PKC activity in liver cells” value in the data set with PKC (time-dependent) is given as “increased”. In the data set with rat model subjects (setting [1]), the “Cholesterol Day 15” value is on record as 2.75 mmol/L and the “LDL Day 15” value is on record as 1.7 mmol/L. In the data set with rat model subjects (setting [2]), the “Cholesterol Day 0” value amounted to 3.65 mmol/L and the “LDL Day 0” value amounted to 2.25 mmol/L. Also, the “LDLR expression among 700 compounds tested” value in the data set on LDLR mRNA is reported as “greatest increase in LDLR expression”. Besides, in the data set with LDLR, the “increase of cell surface LDLR protein expression” value is 4 times. In the data set with hyperlipidemia patients (human, in vivo), the “kidney functions (creatine, blood urea nitrogen, total bilirubin)” value was “did not change kidney functions”; the “reduction of alanine aminotransaminase” value is recorded as “approximately 48%”; the “reduction of aspartate aminotransaminase” value is reported as around 36%; the “reduction of gamma glutamyl transpeptidase” value is given as around 41%. Moreover, in the data set on hyperlipidemia patients (human, in vivo), the side effects result is “no side effects were observed with the exception of one patient having mild constipation during treatment”. In the data set with hyperlipidemia patients (setting [3]), the Cholesterol is reported as 4.2 ± 0.9 mmol/L, the “HDL Protein” value is given as 1.1 ± 0.3, the “LDL Protein” value is 2.4 ± 0.6 mmol/L and the Triglycerides is reported as 1.5 ± 0.9 mmol/L. Also, in the data set with hyperlipidemia patients (setting [4]), the Cholesterol was 5.9 ± 0.7 mmol/L, the “HDL Protein” value worked out at 1.1 ± 0.3, the “LDL Protein” value was found to be 3.2 ± 0.7 mmol/L and the Triglycerides is given as 2.3 ± 1.8 mmol/L.

The record behind these values is US20080081781A1, “Methods and compositions for the treatment of metabolic syndrome” (priority 2004, published 2008).
